The record followed here is a melting point compilation (Tetko et al.; mined from patent text by program, amines drawn as free bases though some values may be those of a salt).

A word on the melting point: it is the temperature, or range, at which the solid turns liquid. Compound `CCCOc1ccc2ccccc2c1-c1c(OCCC)ccc2ccccc12` had a melting point of 87 °C.

`C#CCCCOc1c(C)cc(-c2nc(C)no2)cc1C` had a melting point of 38 to 40 °C.

The compound `C(=CCN(c1ccccc1)c1cccc2ccccc12)CN(c1ccccc1)c1cccc2ccccc12` came in with a melting point of 140 to 142 °C.

`CCC(=O)Nc1cccc2c1C1(COc3cc4c(cc31)OCCO4)C(=O)N2C` (configuration not stated) displayed a melting point of 224 to 226 °C.

For the compound `CCCn1nc(C)c([N+](=O)[O-])c1C(N)=O`, the melting point lay within 136 to 138 °C.

`O=C(CCl)N1CCN(C(=O)CCl)CC1` gave a melting point of 104 to 107 °C.

The compound `CN1CCC(CC(=O)N2c3ccccc3C(=O)Nc3cccc(Cl)c32)CC1` yielded a melting point of 112 °C.

For `Cc1cccc(C)c1N1C(=N)N(c2c(C)cccc2C)C(C)C1C` (configuration not stated), the melting point was in the range of 155 to 157 °C.

As for `Cc1nc2cc(NC(=O)c3cc4cccnc4n3-c3ccncc3)ccc2s1`, the melting point was 236 to 238 °C.

Regarding `CS(=O)(=O)c1nnc(F)s1`, the melting point amounted to 65 °C.

Consider `CC(C)NC(=O)OC1SCN(c2ccccc2)C1=O` (configuration not stated), for which the melting point fell in the range of 130 to 132 °C.

The compound `Cc1ccc(-c2nc(C#N)cc3c4cccc5c4n(c23)CCC5)cc1` gave a melting point of 217 to 218 °C.

In the case of `CC(=O)NC[C@H]1CN(c2ccc(-n3cccn3)c(F)c2)C(=O)O1`, the melting point lay in the range of 183 to 184 °C.

As to `N#Cc1ccc(-c2ccc(C(=O)O)cn2)cc1`, the melting point is more than 260 °C.

Turning to `O=Cc1ccc(OCc2ccccc2)c2c1OCO2`, the melting point lay within 81 to 82 °C.

The compound `O=[N+]([O-])c1cnn(-c2c(Cl)cc(C(F)(F)F)cc2Cl)c1Br` had a melting point of 96 °C.

The compound `Nn1c(=O)c2cc(F)c(Cl)nc2n(C2CC2)c1=O` showed a melting point of 192 to 194 °C.

In turn, `Nc1nc(-n2cc(C(=O)O)c(=O)c3cc(F)c(F)c(Cl)c32)c(Cl)cc1F` displayed a melting point of 280 °C.

The compound `CCOC(=O)c1cnc2nn(C)cc2c1N1CCN(C)CC1` returned a melting point of 142 to 143 °C.

Consider `CCOC(=O)c1ccc(NC(=O)c2sc3ccc(OC)cc3c2OC(C)C)nc1`, for which the melting point lay in the range of 131 to 133 °C.

Compound `COc1cc(Nc2c(C#N)cnc3cc(Cl)c([N+](=O)[O-])cc23)cc(OC)c1OC` yielded a melting point of 215 to 217 °C.

Compound `CC(N)=CC(=O)c1cccs1` yielded a melting point of 170 to 172 °C.

`COCCOC[C@H](CC1(C(=O)N[C@H]2CC[C@@H](C(=O)O)CC2)CCCC1)C(=O)O` displayed a melting point of 108 °C.

The compound `CC(=O)NCc1ncc(-n2nc(C)cc2C)nc1Nc1ccc(Cl)cc1` yielded a melting point of 228 to 230 °C.

Compound `NC1=NC(c2ccccc2)=NCC1(N)N=O` (configuration not stated) returned a melting point of 243 to 244 °C.

In the case of `CC[C@H](C)[C@H](NS(=O)(=O)c1cccc2ccccc12)C(=O)N[C@@H](Cc1c[nH]c2ccccc12)C(=O)O`, the melting point fell in the range of 167 to 168 °C.

With `CCOC(=O)C(C(=O)CC)C(=O)OCC`, the melting point lay in the range of 89 to 93 °C.

With `O=C(O)c1ccc(COCc2csc3nc(C(=O)NCc4ccnc(OCCCc5nc[nH]n5)c4)[nH]c(=O)c23)cc1`, the melting point is 206 to 209 °C.

The compound `COC(=O)c1cc(-c2nc(COc3ccc(CO)cc3OC)c(C)o2)ccc1C` yielded a melting point of 145 to 146 °C.

The compound `CC(C)C(=O)N[C@@H](CSC(=O)c1ccccc1)C(=O)NCCSC(=O)C(C)(C)C` registered a melting point of 123 to 124 °C.

As for `COc1ccc(-n2nc(CC(C(=O)N(C)O)c3ccc(Cl)cc3)cc2-c2ccc(Cl)cc2)cc1` (configuration not stated), the melting point fell in the range of 113 to 117 °C.

Take `CC(C)(O)c1ccc(CC(=O)Nc2cccnc2Oc2ccc(F)cc2)cc1`: the melting point is 135 to 137 °C.

On to `CSc1cc(Oc2cccc(C(F)(F)F)c2)nc(C(=O)NN)c1`, for which the melting point lay in the range of 149 to 151 °C.

Turning to `CC(C)(c1ccccc1)n1nnc(-c2ccccc2-c2ccc(CO)cc2)n1`, the melting point was in the range of 117 to 120 °C.

`O=C1c2ccccc2C(=O)N1CCCOc1cccc2c(N3CCCCC3)nccc12` gave a melting point of 146 to 147 °C.

In turn, `NC(=O)Cc1ccc2noc(-c3ccc(Cl)cc3)c2c1` returned a melting point of 242 to 244 °C.

`O=C1NCN(c2ccccc2)C12CCN(C[C@@H]1CCc3ccc(Cl)cc3[C@H]1O)CC2` (relative stereo) registered a melting point of 248 to 249 °C.

Compound `COc1cc2ncnc(N3CCc4cc(F)ccc43)c2cc1OC` gave a melting point of 190 to 191 °C.

In the case of `COc1cc2c(Nc3ccc(Sc4nccn4C)c(Cl)c3)c(C#N)cnc2cc1N(C)CCCN(C)C`, the melting point fell in the range of 196 to 201 °C.

For `O=C(O)Cc1c(-c2ccccc2)c2cc(Cl)c(Cl)cc2oc1=O`, the melting point lay in the range of 222 to 223 °C.

Take `COC(=O)c1ccc2c(c1)-c1c(c(C(=O)C(C#N)C(=O)Nc3ccccc3)nn1-c1ccccc1)CS2` (configuration not stated): the melting point was in the range of 228 to 230 °C.

Take `Nn1cccc1C(=O)c1cccs1`: the melting point fell in the range of 81 to 82 °C.

`CN1CCC(N(C2CC2)S(=O)(=O)c2ccc(Nc3nccc(Nc4ccc(F)cc4)n3)cc2)CC1` yielded a melting point of 218 °C.

In turn, `CC(=O)OC[C@@H]1O[C@H](n2c(NC(C)C)nc3c(Cl)cccc32)[C@@H](OC(C)=O)[C@H]1OC(C)=O` came in with a melting point of 225 to 227 °C.

The compound `CC(C)(C)OC(=O)N1CCC(c2noc3c(O)c(F)ccc23)CC1` returned a melting point of 169 to 170 °C.

For the compound `CCSc1cc(O)nc(N(C)C)n1`, the melting point lay within 184 to 185 °C.

The compound `OCCCSc1nc2ccc(Cc3ccccc3)cc2[nH]1` yielded a melting point of 103 to 105 °C.

Turning to `CCCCCCCCCCCc1nnc2n1-c1ccccc1C(c1ccccc1)=NC2`, the melting point is 76 to 77 °C.

The compound `COCCc1nc2c(N)nc3ccccc3c2n1CCOCCNS(C)(=O)=O` registered a melting point of 114 to 117 °C.

Take `O=C(O)c1ccc(OCCNC(=O)C2Cc3ccccc3N2S(=O)(=O)c2ccc(-c3ccc(F)cc3Cl)cc2)cc1F` (configuration not stated): the melting point was 98 to 102 °C.

With `CSc1ccc(CCOCCCCCC(C)NCC(O)c2ccc(O)c(NS(C)(=O)=O)c2)cc1` (configuration not stated), the melting point lay within 133 to 138 °C.

In the case of `CCCc1oc(-c2ccccc2)nc1COc1ccc(CO)cc1`, the melting point was 79 to 80 °C.

`CC(=O)c1ccc(NCc2c(O)ccc3c2CCCO3)cc1` gave a melting point of 213 to 215 °C.

In the case of `CC(=O)N1CCN(C(=O)OC2C3=C(SCCS3)C(=O)N2c2ccc3ccc(Cl)nc3n2)CC1` (configuration not stated), the melting point was found to be 271 °C.

On to `Brc1ccc(OC2CCN(c3nc4cccc5c4n3CCC5)CC2c2ccccc2)cc1` (configuration not stated), for which the melting point lay in the range of 188 to 189 °C.

`C=Cc1ncn2c1[C@@H]1CCN1C(=O)c1c(Cl)cccc1-2` gave a melting point of 171 to 172 °C.

On to `Cc1oc(-c2ccccc2)nc1COc1ccc(OCc2oc(-c3ccccc3)nc2CO)cc1`, for which the melting point fell in the range of 143 to 144 °C.

Turning to `COC(=O)C(C)(C)c1ccc2cc(OC)ccc2c1`, the melting point lay in the range of 97 to 98 °C.

Compound `C[C@@H](NC(=O)c1c[nH]c2ncc(-c3nn(C)c4cc(Cl)cc(Cl)c34)nc12)C(=O)N1CC(C#N)C1` gave a melting point of 196 to 200 °C.

`Clc1ccc2c(c1)C(c1ccccc1Cl)NCc1cncnc1-2` (configuration not stated) displayed a melting point of 169 to 170 °C.

In turn, `Cc1ccc(-c2nc(O)c(C)s2)cc1` gave a melting point of 172 to 174 °C.

With `CC(C)(C)c1cc(C=O)c2c(c1O)CCCC2`, the melting point lay within 193 to 194 °C.
